Where “and” joins values, the source holds several entries; their conditions need not be identical. Identical values can stand only once.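 How tested: cells in 96-well plates exposed to compound for 48 hours at five concentrations. At the GI50, growth is halved. TGI: total growth inhibition.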
Tests used:
Experiment in all cases: inhibition of tumour cell growth, NCI panel, 48 h
[1] = system: A549 NSCLC
[2] = system: CAKI-1 renal
[3] = system: HOP-92 NSCLC
[4] = system: HS 578T breast
[5] = system: NCI-H460 lung
[6] = system: OVCAR-3 ovarian
[7] = system: RPMI-8226 leukemia
[8] = system: SK-MEL-28 melanoma

Compound | GI50 [1] [µM] | TGI [1] | GI50 [2] [µM] | TGI [2] | GI50 [3] [µM] | TGI [3] | GI50 [4] [µM] | TGI [4] | GI50 [5] [µM] | TGI [5] | GI50 [6] [µM] | TGI [6] | GI50 [7] [µM] | TGI [7] | GI50 [8] [µM] | TGI [8]
O=C(O)CSc1cc(NS(=O)(=O)c2ccc(Br)cc2)c2ccccc2c1O | 22.8 | 42.6 µM | 14.6 | 29.4 µM | 13.5 | 31.6 µM | 7.65 | 80.1 µM | 18.8 | 37.4 µM | 2.58 | 9.09 µM | 5.33 | 29.9 µM | 14.5 | 29 µM
O=C1NC(=O)N(S(=O)(=O)c2cc(C(=O)Nc3ccc(Cl)cc3)c(Cl)cc2S)S(=O)(=O)N1 | 25.1 | 55.6 µM | 19 | 35.4 µM | 12.9 | 44.3 µM | 21.1 | 55.4 µM | 16.3 | 40.3 µM | 19.2 | 36.1 µM | 17.7 | 55.7 µM | 14.6 | > 100 µM
O=C1C[C@@H]2OCC=C3C[N+]4([O-])CC[C@]56c7ccccc7N1[C@H]5[C@H]2[C@H]3C[C@@H]64 (some centres not stated) | > 100 | > 100 µM | > 100 | > 100 µM | > 100 | > 100 µM | > 100 | > 100 µM | > 100 | > 100 µM | > 100 | > 100 µM | > 100 | > 100 µM | > 100 | > 100 µM
CC1(C)CC2=NO[Se]3=C2C(=NO3)C1 |  | 14.2 µM |  | 11.4 µM |  | 8.21 µM |  | 33.1 µM |  | 4.05 µM |  | 5.37 µM |  | 18.5 µM |  | 16.6 µM
N#C[Se]CCN1C(=O)c2ccccc2C1=O | 2.55 | 8.93 µM | 2.94 | 8.62 µM | 1.37 | 3.12 µM | 1.43 | 6.09 µM | 2.25 | 11.4 µM | 2.73 | 9.39 µM | 3.35 | 18.5 µM | 1.8 | 4.99 µM
N=C(N)SCc1ccc(Cl)c2ccccc12 (tested in a mixture with another compound) |  | 31.3 µM and 35.5 µM |  | 19.2 µM and 24.4 µM |  | 32.2 µM and 24.9 µM |  | 48.1 µM and 53 µM |  | 22.4 µM and 21 µM |  | 23.6 µM and 25 µM |  | 18.5 µM and 7.98 µM |  | 28.1 µM and 25.6 µM
COc1ccc([C@@H]2[C@@H](Oc3ccccc3)C(=O)N2c2cc(OC)c(OC)c(OC)c2)cc1F | 0.209 | > 100 µM |  |  | 0.722 | > 100 µM | 0.0864 | 77.9 µM | 0.155 | > 100 µM | 0.0511 | > 100 µM | 0.207 | 5.64 µM | 0.26 | > 100 µM
O=[N+]([O-])c1ccc(/C=C(/c2ccc([N+](=O)[O-])o2)S(=O)(=O)c2ccccc2)cc1 |  | > 100 µM |  | > 100 µM |  | > 100 µM |  | > 100 µM |  | > 100 µM |  | > 100 µM |  | 31.4 µM |  | > 100 µM
Oc1c(Br)cc(Cl)cc1C(c1cc(Cl)cc(Br)c1O)C(Cl)(Cl)Cl | 3.13 | 11.7 µM | 2.09 | 8.73 µM | 0.457 | 2.48 µM | 2.46 | > 21.9 µM | 2.4 | 8.53 µM | 3.14 | 10.1 µM | 0.961 | 6.47 µM | 3.7 | 14.9 µM
OCc1ccc(N2CCc3ccc(F)cc3C2)cc1Cl | 0.516 | 19.8 µM | 1.01 | 9.62 µM | 0.146 | 0.889 µM | 15.8 | 48.4 µM | 0.0872 | 0.532 µM | 0.0605 | 0.325 µM | 0.263 | 10.7 µM | 13.1 | 26.1 µM
NS(=O)(=O)c1cc2c(cc1Cl)NCNS2(=O)=O |  | > 100 µM |  | > 100 µM |  | > 100 µM |  | > 100 µM |  | > 100 µM |  | > 100 µM |  | > 100 µM |  | > 100 µM
O=C(O)c1cn(C2CC2)c2cc(N3CCN(C(=O)N(c4ccccc4)c4nc(-c5ccccc5)cs4)CC3)c(F)cc2c1=O | 0.3 | > 100 µM |  |  | 0.241 | 0.948 µM | 0.393 | > 100 µM | 0.296 | > 100 µM |  |  |  |  | 0.687 | > 100 µM
CCCCCCCCCCN=C(N)c1ccc(N2CCN(c3ccc(C(N)=NCCCCCCCCCC)cc3)CC2)cc1 | 3.32 | > 50 µM | 17.9 | > 50 µM | 5.88 | 28.9 µM |  |  | 1.97 | > 50 µM | 2.23 | 8.57 µM | 1.96 | > 50 µM | 4.76 | 36 µM
c1cc(OCCCCCOc2cccc(-c3nc4ccccc4[nH]3)c2)cc(-c2nc3ccccc3[nH]2)c1 |  |  | 1.79 | 8.65 µM | 1.09 | 4.68 µM | 2.56 | 8.51 µM | 2.6 | > 100 µM | 1.53 | > 100 µM |  |  | 2.82 | > 100 µM
COc1cc2c(cc1OCCN1CCN(CCN3C(=O)c4cccc5cccc(c45)C3=O)CC1)N=C[C@@H]1CCCN1C2=O | 18.7 | 47.3 µM | 13.6 | 30.2 µM |  |  | 24.9 | 54.4 µM | 18.1 | 42.8 µM | 15.8 | 33.5 µM | 17.1 | 34.8 µM | 32.5 | 77.7 µM

From PubChem BioAssay (NCI)
